Assay: Drug release from drug-containing disulfide-bond cross-linked hyaluronic acid hydrogel into phosphate buffer solution
Format: physicochemical
Settings: 37° C., 100 rpm; for Cumulative release percentage of the drug: hydrogel 10 mg/ml hyaluronic acid, degree of mercapto-modification 3.97%
Experimental: In the preparation process of the disulfide-bond cross-linked hyaluronic acid hydrogel of Example 6 (having a concentration of hyaluronic acid of 10 mg/ml and a degree of mercapto-modification of 3.97%), 0.1-10 mg cortical hormones (e.g. Beclomethasone, Beclomethasone dipropionate, Budesonide, Dexamethasone, Prednisolone, and Prednisone) were added respectively to make the cortical hormones uniformly dispersed in the prepared cross-linked hydrogel.
10 ml phosphate buffer solution was added to 0.2 ml of the above drug-containing cross-linked hydrogel placed into a 15 ml plastic centrifugal tube. Then centrifugal tube was placed in a shaker (37° C., 100 rpm), and the ultraviolet absorption of the drugs in the supernatant was measured at regular intervals. The measurement wavelengths were as follows: Beclomethasone 246 nm, Beclomethasone dipropionate 240 nm, Budesonide 248 nm, Dexamethasone 242 nm, Prednisolone 248 nm, and Prednisone 244 nm.

| Release behaviour from the hydrogel (in words) | Cumulative release percentage of the drug (7 days) [%] | Cumulative release percentage of the drug (14 days) [%] | Cumulative release percentage of the drug (21 days) [%] | Structure (SMILES) |
| --- | --- | --- | --- | --- |
| release was rarely detected | <1 | <1 | <1 | CCC(=O)OCC(=O)[C@@]1(OC(=O)CC)[C@@H](C)C[C@H]2[C@@H]3CCC4=CC(=O)C=C[C@]4(C)[C@@]3(Cl)[C@@H](O)C[C@@]21C [Beclomethasone dipropionate] |
|  | 68 | 87 | 94 | C[C@H]1C[C@H]2[C@@H]3CCC4=CC(=O)C=C[C@]4(C)[C@@]3(Cl)[C@@H](O)C[C@]2(C)[C@@]1(O)C(=O)CO [Beclomethasone] |
| released basically completely in 7 days | 95 | 100 | 100 | C[C@]12C=CC(=O)C=C1CC[C@@H]1[C@@H]2[C@@H](O)C[C@@]2(C)[C@H]1CC[C@]2(O)C(=O)CO [Prednisolone] |
|  | 86 | 99 | 100 | C[C@]12C=CC(=O)C=C1CC[C@@H]1[C@@H]2C(=O)C[C@@]2(C)[C@H]1CC[C@]2(O)C(=O)CO [Prednisone] |

— US10064889B2, “Mercapto-modified biocompatible macromolecule derivatives with low degree of mercapto-modification and the cross-linked materials and uses thereof” (Bioregen Biomedical (Changzhou) Co., Ltd., priority 2010, dated 2018)
